# Test results from ChEMBL document CHEMBL4002566, “S-substituted 3,5-dinitrophenyl 1,3,4-oxadiazole-2-thiols and tetrazole-5-thiols as highly efficient antitubercular agents” (Eur J Med Chem, 2017).
# What was measured:
# Mycobacterium avium [1] = assay: Antimycobacterial activity against Mycobacterium avium CNCTC My 330/88 after 21 days by micromethod; format: functional; details: CNCTC My 330/88, 504 h
# [2] = test system: Mycobacterium tuberculosis; assay: Antimycobacterial activity against Mycobacterium tuberculosis CNCTC My 331/88 after 14 days by micromethod; format: functional; details: CNCTC My 331/88, 336 h
# Mycobacterium avium [3] = assay: Antimycobacterial activity against Mycobacterium avium CNCTC My 330/88 after 14 days by micromethod; format: functional; details: CNCTC My 330/88, 336 h
# Mycobacterium kansasii [4] = assay: Antimycobacterial activity against Mycobacterium kansasii CNCTC My 235/80 after 14 days by micromethod; format: functional; details: CNCTC My 235/80, 336 h
# Mycobacterium kansasii [5] = assay: Antimycobacterial activity against Mycobacterium kansasii 6509/96 clinical isolate after 14 days by micromethod; format: functional; details: 6509/96, 336 h
# Candida albicans [6] = assay: Antifungal activity against Candida albicans ATCC 44859 after 24 hrs by broth microdilution method; format: functional; details: ATCC 44859, 24 h
# Candida albicans [7] = assay: Antifungal activity against Candida albicans ATCC 44859 after 48 hrs by broth microdilution method; format: functional; details: ATCC 44859, 48 h
# Candida tropicalis [8] = assay: Antifungal activity against Candida tropicalis 156 after 24 hrs by broth microdilution method; format: functional; details: Candida tropicalis, 156, 24 h
# Candida tropicalis [9] = assay: Antifungal activity against Candida tropicalis 156 after 48 hrs by broth microdilution method; format: functional; details: Candida tropicalis, 156, 48 h
# Pichia kudriavzevii [10] = assay: Antifungal activity against Candida krusei E28 after 24 hrs by broth microdilution method; format: functional; details: E28, 24 h
# Pichia kudriavzevii [11] = assay: Antifungal activity against Candida krusei E28 after 48 hrs by broth microdilution method; format: functional; details: E28, 48 h
# Nakaseomyces glabratus [12] = assay: Antifungal activity against Candida glabrata 20/I after 24 hrs by broth microdilution method; format: functional
# Nakaseomyces glabratus [13] = assay: Antifungal activity against Candida glabrata 20/I after 48 hrs by broth microdilution method; format: functional
# Trichosporon asahii [14] = assay: Antifungal activity against Trichosporon asahii 1188 after 24 hrs by broth microdilution method; format: functional; details: Trichosporon asahii, 1188, 24 h
# Trichosporon asahii [15] = assay: Antifungal activity against Trichosporon asahii 1188 after 48 hrs by broth microdilution method; format: functional; details: Trichosporon asahii, 1188, 48 h
# Aspergillus fumigatus [16] = assay: Antifungal activity against Aspergillus fumigatus 231 after 24 hrs by broth microdilution method; format: functional; details: Aspergillus fumigatus, 231, 24 h
# Aspergillus fumigatus [17] = assay: Antifungal activity against Aspergillus fumigatus 231 after 48 hrs by broth microdilution method; format: functional; details: Aspergillus fumigatus, 231, 48 h
# Lichtheimia corymbifera [18] = assay: Antifungal activity against Absidia corymbifera 272 after 24 hrs by broth microdilution method; format: functional; details: Lichtheimia corymbifera, 272, 24 h
# Lichtheimia corymbifera [19] = assay: Antifungal activity against Absidia corymbifera 272 after 48 hrs by broth microdilution method; format: functional; details: Lichtheimia corymbifera, 272, 48 h
# [20] = test system: Trichophyton mentagrophytes; assay: Antifungal activity against Trichophyton mentagrophytes 445 after 72 hrs by broth microdilution method; format: functional; details: Trichophyton mentagrophytes, 445, 72 h
# [21] = test system: Trichophyton mentagrophytes; assay: Antifungal activity against Trichophyton mentagrophytes 445 after 120 hrs by broth microdilution method; format: functional; details: Trichophyton mentagrophytes, 445, 120 h
# Staphylococcus aureus [22] = assay: Antibacterial activity against Staphylococcus aureus ATCC 6538 after 24 hrs by broth microdilution method; format: functional; details: ATCC 6538, 24 h
# Staphylococcus aureus [23] = assay: Antibacterial activity against Staphylococcus aureus ATCC 6538 after 48 hrs by broth microdilution method; format: functional; details: ATCC 6538, 48 h
# Staphylococcus aureus [24] = assay: Antibacterial activity against methicillin-resistant Staphylococcus aureus HK5996/08 after 24 hrs by broth microdilution method; format: functional; details: HK5996/08, 24 h
# Staphylococcus aureus [25] = assay: Antibacterial activity against methicillin-resistant Staphylococcus aureus HK5996/08 after 48 hrs by broth microdilution method; format: functional; details: HK5996/08, 48 h
# [26] = test system: Staphylococcus epidermidis; assay: Antibacterial activity against Staphylococcus epidermidis HK6996/08 after 24 hrs by broth microdilution method; format: functional; details: HK6996/08, 24 h
# [27] = test system: Staphylococcus epidermidis; assay: Antibacterial activity against Staphylococcus epidermidis HK6996/08 after 48 hrs by broth microdilution method; format: functional; details: HK6996/08, 48 h
# Enterococcus sp. [28] = assay: Antibacterial activity against Enterococcus sp. HK14365/08 after 24 hrs by broth microdilution method; format: functional; details: HK14365/08, 24 h
# Enterococcus sp. [29] = assay: Antibacterial activity against Enterococcus sp. HK14365/08 after 48 hrs by broth microdilution method; format: functional; details: HK14365/08, 48 h
# Escherichia coli [30] = assay: Antibacterial activity against Escherichia coli ATCC 8739 after 24 hrs by broth microdilution method; format: functional; details: ATCC 8739, 24 h
# Escherichia coli [31] = assay: Antibacterial activity against Escherichia coli ATCC 8739 after 48 hrs by broth microdilution method; format: functional; details: ATCC 8739, 48 h
# Klebsiella pneumoniae [32] = assay: Antibacterial activity against Klebsiella pneumoniae HK11750/08 after 24 hrs by broth microdilution method; format: functional; details: HK11750/08, 24 h
# Klebsiella pneumoniae [33] = assay: Antibacterial activity against Klebsiella pneumoniae HK11750/08 after 48 hrs by broth microdilution method; format: functional; details: HK11750/08, 48 h
# Klebsiella pneumoniae [34] = assay: Antibacterial activity against extended spectrum beta-lactamase producing Klebsiella pneumoniae HK14368/08 after 24 hrs by broth microdilution method; format: functional; details: HK14368/08, 24 h
# Klebsiella pneumoniae [35] = assay: Antibacterial activity against extended spectrum beta-lactamase producing Klebsiella pneumoniae HK14368/08 after 48 hrs by broth microdilution method; format: functional; details: HK14368/08, 48 h
# Pseudomonas aeruginosa [36] = assay: Antibacterial activity against Pseudomonas aeruginosa ATCC 9027 after 24 hrs by broth microdilution method; format: functional; details: ATCC 9027, 24 h
# Pseudomonas aeruginosa [37] = assay: Antibacterial activity against Pseudomonas aeruginosa ATCC 9027 after 48 hrs by broth microdilution method; format: functional; details: ATCC 9027, 48 h
# [38] = Cytotoxicity against human HuH7 cells assessed as cell viability at 30 uM after 48 hrs by MTS assay relative to control; format: cell-based, Huh-7; details: read-out: Activity
# Huh-7 = assay: Cytotoxicity against human HuH7 cells assessed as cell viability after 48 hrs by MTS assay; format: cell-based; details: Huh-7, 48 h
# A-431 = assay: Cytotoxicity against human A431 cells assessed as cell viability after 48 hrs by MTS assay; format: cell-based; details: A-431, 48 h
# [39] = Cytotoxicity against human A431 cells assessed as cell viability at 30 uM after 48 hrs by MTS assay relative to control; format: cell-based, A-431; details: read-out: Activity
# MDCK = assay: Cytotoxicity against MDCK cells assessed as cell viability after 48 hrs by MTS assay; format: cell-based; details: Canis lupus familiaris
# [40] = Cytotoxicity against MDCK cells assessed as cell viability at 30 uM after 48 hrs by MTS assay relative to control; format: cell-based, Canis lupus familiaris; details: dog, read-out: Activity
# HepG2 = assay: Cytotoxicity against human HepG2 cells assessed as cell viability after 48 hrs by MTS assay; format: cell-based; details: HepG2, 48 h
# [41] = Cytotoxicity against human HepG2 cells assessed as cell viability at 30 uM after 48 hrs by MTS assay relative to control; format: cell-based; details: read-out: Activity
# [42] = Selectivity index, ratio of IC50 for human HepG2 cells to MIC for Mycobacterium tuberculosis; format: toxicity; details: read-out: Selectivity Index
# [43] = test system: Mycobacterium tuberculosis; assay: Antimycobacterial activity against Mycobacterium tuberculosis CNCTC My 331/88 after 21 days by micromethod; format: functional; details: CNCTC My 331/88, 504 h
# Mycobacterium kansasii [44] = assay: Antimycobacterial activity against Mycobacterium kansasii CNCTC My 235/80 after 21 days by micromethod; format: functional; details: CNCTC My 235/80, 504 h
# Mycobacterium kansasii [45] = assay: Antimycobacterial activity against Mycobacterium kansasii CNCTC My 235/80 after 7 days by micromethod; format: functional; details: CNCTC My 235/80, 168 h
# Mycobacterium kansasii [46] = assay: Antimycobacterial activity against Mycobacterium kansasii 6509/96 clinical isolate after 21 days by micromethod; format: functional; details: 6509/96, 504 h
# Mycobacterium kansasii [47] = assay: Antimycobacterial activity against Mycobacterium kansasii 6509/96 clinical isolate after 7 days by micromethod; format: functional; details: 6509/96, 168 h
# [48] = test system: Mycobacterium tuberculosis; assay: Antimycobacterial activity against Mycobacterium tuberculosis after 14 days; format: functional; details: 336 h
compound,measurement,setting,value
O=[N+]([O-])c1cc(-c2nnc(SCc3ccccc3Cl)o2)cc([N+](=O)[O-])c1,MIC,Mycobacterium avium [1],8 µM
same,MIC,[2],0.03 µM
same,MIC,Mycobacterium avium [3],4 µM
same,MIC,Mycobacterium kansasii [4],0.125 µM
same,MIC,Mycobacterium kansasii [5],0.06 µM
same,MIC,Candida albicans [6],> 500 µM
same,MIC,Candida albicans [7],> 500 µM
same,MIC,Candida tropicalis [8],> 500 µM
same,MIC,Candida tropicalis [9],> 500 µM
same,MIC,Pichia kudriavzevii [10],> 500 µM
same,MIC,Pichia kudriavzevii [11],> 500 µM
same,MIC,Nakaseomyces glabratus [12],> 500 µM
same,MIC,Nakaseomyces glabratus [13],> 500 µM
same,MIC,Trichosporon asahii [14],> 500 µM
same,MIC,Trichosporon asahii [15],> 500 µM
same,MIC,Aspergillus fumigatus [16],> 500 µM
same,MIC,Aspergillus fumigatus [17],> 500 µM
same,MIC,Lichtheimia corymbifera [18],> 500 µM
same,MIC,Lichtheimia corymbifera [19],> 500 µM
same,MIC,[20],> 500 µM
same,MIC,[21],> 500 µM
same,MIC,Staphylococcus aureus [22],> 500 µM
same,MIC,Staphylococcus aureus [23],> 500 µM
same,MIC,Staphylococcus aureus [24],> 500 µM
same,MIC,Staphylococcus aureus [25],> 500 µM
same,MIC,[26],> 500 µM
same,MIC,[27],> 500 µM
same,MIC,Enterococcus sp. [28],> 500 µM
same,MIC,Enterococcus sp. [29],> 500 µM
same,MIC,Escherichia coli [30],> 500 µM
same,MIC,Escherichia coli [31],> 500 µM
same,MIC,Klebsiella pneumoniae [32],> 500 µM
same,MIC,Klebsiella pneumoniae [33],> 500 µM
same,MIC,Klebsiella pneumoniae [34],> 500 µM
same,MIC,Klebsiella pneumoniae [35],> 500 µM
same,MIC,Pseudomonas aeruginosa [36],> 500 µM
same,MIC,Pseudomonas aeruginosa [37],> 500 µM
same,"viability at 48 h, 30 µM",[38],144%
same,IC50,Huh-7,> 30 µM
same,IC50,A-431,> 30 µM
same,"viability at 48 h, 30 µM",[39],91%
same,IC50,MDCK,> 30 µM
same,"viability at 48 h, 30 µM",[40],115%
same,IC50,HepG2,> 30 µM
same,"viability at 48 h, 30 µM",[41],129%
same,selectivity ratio,[42],> 1000
same,MIC,[43],0.03 µM
same,MIC,Mycobacterium kansasii [44],0.125 µM
same,MIC,Mycobacterium kansasii [45],0.06 µM
same,MIC,Mycobacterium kansasii [46],0.125 µM
same,MIC,Mycobacterium kansasii [47],0.06 µM
C[C@]1(COc2ccc(N3CCC(Oc4ccc(OC(F)(F)F)cc4)CC3)cc2)Cn2cc([N+](=O)[O-])nc2O1 [DELAMANID],MIC,[48],0.023 µM
